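GI50 is the concentration that inhibits growth by half. TGI marks complete inhibition of growth.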
Assays:
Experiment in all cases: growth of human tumour cells (NCI), 384-well format
786-0 renal = tested on: 786-0 renal
A498 renal = tested on: A498 renal
A549 NSCLC = tested on: A549 NSCLC
ACHN renal = tested on: ACHN renal
BT-549 breast = tested on: BT-549 breast
CAKI-1 renal = tested on: CAKI-1 renal
CCRF-CEM leukemia = tested on: CCRF-CEM leukemia
COLO 205 colon = tested on: COLO 205 colon
DU-145 prostate = tested on: DU-145 prostate
EKVX NSCLC = tested on: EKVX NSCLC
HCC-2998 colon = tested on: HCC-2998 colon
HCT-15 colon = tested on: HCT-15 colon
HL-60(TB) leukemia = tested on: HL-60(TB) leukemia
HOP-62 NSCLC = tested on: HOP-62 NSCLC
HOP-92 NSCLC = tested on: HOP-92 NSCLC
HS 578T breast = tested on: HS 578T breast
HT29 colon = tested on: HT29 colon
IGROV1 ovarian = tested on: IGROV1 ovarian
K-562 leukemia = tested on: K-562 leukemia
KM12 colon = tested on: KM12 colon
LOX IMVI melanoma = tested on: LOX IMVI melanoma
M14 melanoma = tested on: M14 melanoma
MALME-3M melanoma = tested on: MALME-3M melanoma
MCF7 breast = tested on: MCF7 breast
MDA-MB-231 breast = tested on: MDA-MB-231 breast
MDA-MB-435 melanoma = tested on: MDA-MB-435 melanoma
MDA-MB-468 breast = tested on: MDA-MB-468 breast
MOLT-4 leukemia = tested on: MOLT-4 leukemia
NCI-H226 lung = tested on: NCI-H226 lung
NCI-H23 lung = tested on: NCI-H23 lung
NCI-H322M lung = tested on: NCI-H322M lung
NCI-H460 NSCLC = tested on: NCI-H460 NSCLC
NCI-H522 lung = tested on: NCI-H522 lung
NCI/ADR-RES ovarian = tested on: NCI/ADR-RES ovarian
OVCAR-3 ovarian = tested on: OVCAR-3 ovarian
OVCAR-4 ovarian = tested on: OVCAR-4 ovarian
OVCAR-5 ovarian = tested on: OVCAR-5 ovarian
OVCAR-8 ovarian = tested on: OVCAR-8 ovarian
PC-3 prostate = tested on: PC-3 prostate
RPMI-8226 leukemia = tested on: RPMI-8226 leukemia
RXF 393 renal = tested on: RXF 393 renal
SF-268 CNS = tested on: SF-268 CNS
SF-295 CNS = tested on: SF-295 CNS
SF-539 CNS = tested on: SF-539 CNS
SK-MEL-28 melanoma = tested on: SK-MEL-28 melanoma
SK-MEL-5 melanoma = tested on: SK-MEL-5 melanoma
SK-OV-3 ovarian = tested on: SK-OV-3 ovarian
SN12C renal = tested on: SN12C renal
SNB-19 CNS = tested on: SNB-19 CNS
SNB-75 CNS = tested on: SNB-75 CNS
SR leukemia = tested on: SR leukemia
SW-620 colon = tested on: SW-620 colon
T-47D breast = tested on: T-47D breast
TK-10 renal = tested on: TK-10 renal
UACC-257 melanoma = tested on: UACC-257 melanoma
UACC-62 melanoma = tested on: UACC-62 melanoma
UO-31 renal = tested on: UO-31 renal

[2H]C([2H])([2H])NC(=O)c1nnc(NC(=O)C2CC2)cc1Nc1cccc(-c2ncn(C)n2)c1OC
GI50 ([…]-0 renal): 66.2 µM
TGI (786-0 renal): > 100 µM
GI50 (A498 renal): 6.3 µM
TGI (A498 renal): > 100 µM
GI50 (A549 NSCLC): 84.4 µM
TGI (A549 NSCLC): > 100 µM
GI50 (ACHN renal): 16.6 µM
TGI (ACHN renal): > 100 µM
GI50 (BT-549 breast): > 100 µM
TGI (BT-549 breast): > 100 µM
GI50 (CAKI-1 renal): 14.6 µM
TGI (CAKI-1 renal): > 100 µM
GI50 (CCRF-CEM leukemia): 16.6 µM
TGI (CCRF-CEM leukemia): 48.6 µM
GI50 (COLO 205 colon): > 100 µM
TGI (COLO 205 colon): > 100 µM
GI50 (DU-145 prostate): 16.4 µM
TGI (DU-145 prostate): > 100 µM
GI50 (EKVX NSCLC): > 100 µM
TGI (EKVX NSCLC): > 100 µM
GI50 (HCC-2998 colon): > 100 µM
TGI (HCC-2998 colon): > 100 µM
GI50 (HCT-15 colon): 12.9 µM
TGI (HCT-15 colon): > 100 µM
GI50 (HL-60(TB) leukemia): 10.9 µM
TGI (HL-60(TB) leukemia): 26.7 µM
GI50 (HOP-62 NSCLC): 25.1 µM
TGI (HOP-62 NSCLC): 84.9 µM
GI50 (HOP-92 NSCLC): 25.4 µM
TGI (HOP-92 NSCLC): > 100 µM
GI50 (HS 578T breast): 18 µM
TGI (HS 578T breast): > 100 µM
GI50 (HT29 colon): > 100 µM
TGI (HT29 colon): > 100 µM
GI50 (IGROV1 ovarian): 26.4 µM
TGI (IGROV1 ovarian): > 100 µM
GI50 (K-562 leukemia): 43.4 µM
TGI (K-562 leukemia): > 100 µM
GI50 (KM12 colon): 30.2 µM
TGI (KM12 colon): > 100 µM
GI50 (LOX IMVI melanoma): 25 µM
TGI (LOX IMVI melanoma): > 100 µM
GI50 (M14 melanoma): 22.8 µM
TGI (M14 melanoma): > 100 µM
GI50 (MALME-3M melanoma): 32.2 µM
TGI (MALME-3M melanoma): > 100 µM
GI50 (MCF7 breast): > 100 µM
TGI (MCF7 breast): > 100 µM
GI50 (MDA-MB-231 breast): 29.2 µM
TGI (MDA-MB-231 breast): > 100 µM
GI50 (MDA-MB-435 melanoma): > 100 µM
TGI (MDA-MB-435 melanoma): > 100 µM
GI50 (MDA-MB-468 breast): 13.3 µM
TGI (MDA-MB-468 breast): 42.3 µM
GI50 (MOLT-4 leukemia): 15.9 µM
TGI (MOLT-4 leukemia): 36.8 µM
GI50 (NCI-H226 lung): 43.9 µM
TGI (NCI-H226 lung): > 100 µM
GI50 (NCI-H23 lung): 43.7 µM
TGI (NCI-H23 lung): > 100 µM
GI50 (NCI-H322M lung): 23.3 µM
TGI (NCI-H322M lung): > 100 µM
GI50 (NCI-H460 NSCLC): 21.3 µM
TGI (NCI-H460 NSCLC): > 100 µM
GI50 (NCI-H522 lung): 79.1 µM
TGI (NCI-H522 lung): > 100 µM
GI50 (NCI/ADR-RES ovarian): 37.4 µM
TGI (NCI/ADR-RES ovarian): > 100 µM
GI50 (OVCAR-3 ovarian): 41.6 µM
TGI (OVCAR-3 ovarian): > 100 µM
GI50 (OVCAR-4 ovarian): > 100 µM
TGI (OVCAR-4 ovarian): > 100 µM
GI50 (OVCAR-5 ovarian): > 100 µM
TGI (OVCAR-5 ovarian): > 100 µM
GI50 (OVCAR-8 ovarian): 43.6 µM
TGI (OVCAR-8 ovarian): > 100 µM
GI50 (PC-3 prostate): 77.9 µM
TGI (PC-3 prostate): > 100 µM
GI50 (RPMI-8226 leukemia): 3.93 µM
TGI (RPMI-8226 leukemia): 27.6 µM
GI50 (RXF 393 renal): > 100 µM
TGI (RXF 393 renal): > 100 µM
GI50 (SF-268 CNS): > 100 µM
TGI (SF-268 CNS): > 100 µM
GI50 (SF-295 CNS): 33.2 µM
TGI (SF-295 CNS): > 100 µM
GI50 (SF-539 CNS): 79.2 µM
TGI (SF-539 CNS): > 100 µM
GI50 (SK-MEL-28 melanoma): 72.9 µM
TGI (SK-MEL-28 melanoma): > 100 µM
GI50 (SK-MEL-5 melanoma): 36.8 µM
TGI (SK-MEL-5 melanoma): > 100 µM
GI50 (SK-OV-3 ovarian): 5.93 µM
TGI (SK-OV-3 ovarian): 87.6 µM
GI50 (SN12C renal): 32.6 µM
TGI (SN12C renal): > 100 µM
GI50 (SNB-19 CNS): 87.4 µM
TGI (SNB-19 CNS): > 100 µM
GI50 (SNB-75 CNS): 87.9 µM
TGI (SNB-75 CNS): > 100 µM
GI50 (SR leukemia): 29.9 µM
TGI (SR leukemia): > 100 µM
GI50 (SW-620 colon): 93.5 µM
TGI (SW-620 colon): > 100 µM
GI50 (T-47D breast): > 100 µM
TGI (T-47D breast): > 100 µM
GI50 (TK-10 renal): > 100 µM
TGI (TK-10 renal): > 100 µM
GI50 (UACC-257 melanoma): > 100 µM
TGI (UACC-257 melanoma): > 100 µM
GI50 (UACC-62 melanoma): 25.5 µM
TGI (UACC-62 melanoma): > 100 µM
GI50 (UO-31 renal): > 100 µM
TGI (UO-31 renal): > 100 µM
